Results from PubChem BioAssay (NCI).
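Dose response: 5 concentrations. Exposure: 48 h. Format: 96-well plates. Endpoint: linear interpolation; highest concentration if not reached. At the TGI there is no net growth.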

Experiments:
Test in all cases: DTP human tumour cell line panel, 48 h
SF-295 CNS = system: SF-295 CNS
RXF-631 renal = system: RXF-631 renal
HCT-116 colon = system: HCT-116 colon
IGROV1 ovarian = system: IGROV1 ovarian
SNB-19 CNS = system: SNB-19 CNS
SK-MEL-28 melanoma = system: SK-MEL-28 melanoma
HOP-18 NSCLC = system: HOP-18 NSCLC
RPMI-8226 leukemia = system: RPMI-8226 leukemia
OVCAR-3 ovarian = system: OVCAR-3 ovarian
LOX IMVI melanoma = system: LOX IMVI melanoma
HL-60(TB) leukemia = system: HL-60(TB) leukemia
SF-539 CNS = system: SF-539 CNS
DMS 273 small cell lung = system: DMS 273 small cell lung
M14 melanoma = system: M14 melanoma
HCT-15 colon = system: HCT-15 colon
NCI-H23 lung = system: NCI-H23 lung
HOP-92 NSCLC = system: HOP-92 NSCLC
HCC-2998 colon = system: HCC-2998 colon
KM20L2 colon = system: KM20L2 colon
COLO 205 colon = system: COLO 205 colon
UO-31 renal = system: UO-31 renal
OVCAR-8 ovarian = system: OVCAR-8 ovarian
DLD-1 colon = system: DLD-1 colon
SW-620 colon = system: SW-620 colon
SK-OV-3 ovarian = system: SK-OV-3 ovarian
SNB-78 CNS = system: SNB-78 CNS
HT29 colon = system: HT29 colon
A549 NSCLC = system: A549 NSCLC
SK-MEL-2 melanoma = system: SK-MEL-2 melanoma
U251 CNS = system: U251 CNS
KM12 colon = system: KM12 colon
SN12C renal = system: SN12C renal
M19-MEL melanoma = system: M19-MEL melanoma
SK-MEL-5 melanoma = system: SK-MEL-5 melanoma
SNB-75 CNS = system: SNB-75 CNS
MOLT-4 leukemia = system: MOLT-4 leukemia
OVCAR-4 ovarian = system: OVCAR-4 ovarian
CCRF-CEM leukemia = system: CCRF-CEM leukemia
EKVX NSCLC = system: EKVX NSCLC
NCI-H226 lung = system: NCI-H226 lung
LXFL 529 NSCLC = system: LXFL 529 NSCLC
ACHN renal = system: ACHN renal
786-0 renal = system: 786-0 renal
K-562 leukemia = system: K-562 leukemia
TK-10 renal = system: TK-10 renal
UACC-62 melanoma = system: UACC-62 melanoma
MALME-3M melanoma = system: MALME-3M melanoma
NCI-H460 lung = system: NCI-H460 lung
SR leukemia = system: SR leukemia
HOP-62 NSCLC = system: HOP-62 NSCLC
SF-268 CNS = system: SF-268 CNS
UACC-257 melanoma = system: UACC-257 melanoma
A498 renal = system: A498 renal
NCI-H522 lung = system: NCI-H522 lung
DMS 114 small cell lung = system: DMS 114 small cell lung
OVCAR-5 ovarian = system: OVCAR-5 ovarian

COCC1N=C(c2cc(OC)c(OC)c(OC)c2-c2cc3c(cc2[C@H](C)O)OCO3)O[C@H]1c1ccccc1 (stereo partly drawn)
TGI (SF-295 CNS): > 100 µM | TGI (RXF-631 renal): > 100 µM | TGI (HCT-116 colon): > 100 µM | TGI (IGROV1 ovarian): > 100 µM | TGI (SNB-19 CNS): > 100 µM | TGI (SK-MEL-28 melanoma): > 100 µM | TGI (HOP-18 NSCLC): > 100 µM | TGI (RPMI-8226 leukemia): > 100 µM | TGI (OVCAR-3 ovarian): > 100 µM | TGI (LOX IMVI melanoma): > 100 µM | TGI (HL-60(TB) leukemia): > 10 µM | TGI (SF-539 CNS): > 100 µM | TGI (DMS 273 small cell lung): > 100 µM | TGI (M14 melanoma): > 100 µM | TGI (HCT-15 colon): > 100 µM | TGI (NCI-H23 lung): > 100 µM | TGI (HOP-92 NSCLC): 86.4 µM | TGI (HCC-2998 colon): > 100 µM | TGI (KM20L2 colon): > 100 µM | TGI (COLO 205 colon): 85.2 µM | TGI (UO-31 renal): > 100 µM | TGI (OVCAR-8 ovarian): > 100 µM | TGI (DLD-1 colon): > 100 µM | TGI (SW-620 colon): > 100 µM | TGI (SK-OV-3 ovarian): > 100 µM | TGI (SNB-78 CNS): > 100 µM | TGI (HT29 colon): > 100 µM | TGI (A549 NSCLC): > 100 µM | TGI (SK-MEL-2 melanoma): > 100 µM | TGI (U251 CNS): > 100 µM | TGI (KM12 colon): > 100 µM | TGI (SN12C renal): > 100 µM | TGI (M19-MEL melanoma): > 100 µM | TGI (SK-MEL-5 melanoma): > 100 µM | TGI (SNB-75 CNS): > 100 µM | TGI (MOLT-4 leukemia): > 100 µM | TGI (OVCAR-4 ovarian): > 100 µM | TGI (CCRF-CEM leukemia): > 10 µM | TGI (EKVX NSCLC): > 100 µM | TGI (NCI-H226 lung): > 100 µM | TGI (LXFL 529 NSCLC): > 100 µM | TGI (ACHN renal): > 100 µM | TGI (786-0 renal): > 100 µM | TGI (K-562 leukemia): > 10 µM | TGI (TK-10 renal): > 100 µM | TGI (UACC-62 melanoma): > 100 µM

O=C1CNN=C(Cn2nc(-c3ccccc3)c3ccccc3c2=O)N1
TGI (SF-295 CNS): > 100 µM | TGI (HCT-116 colon): > 100 µM | TGI (MALME-3M melanoma): > 100 µM | TGI (IGROV1 ovarian): > 100 µM | TGI (SNB-19 CNS): > 100 µM | TGI (SK-MEL-28 melanoma): > 100 µM | TGI (HOP-18 NSCLC): > 100 µM | TGI (RPMI-8226 leukemia): > 100 µM | TGI (OVCAR-3 ovarian): > 100 µM | TGI (HL-60(TB) leukemia): > 100 µM | TGI (SF-539 CNS): > 100 µM | TGI (DMS 273 small cell lung): > 100 µM | TGI (NCI-H460 lung): > 100 µM | TGI (M14 melanoma): > 100 µM | TGI (HCT-15 colon): > 100 µM | TGI (SR leukemia): > 100 µM | TGI (NCI-H23 lung): > 100 µM | TGI (HOP-92 NSCLC): > 100 µM | TGI (HOP-62 NSCLC): > 100 µM | TGI (HCC-2998 colon): > 100 µM | TGI (COLO 205 colon): > 100 µM | TGI (UO-31 renal): > 100 µM | TGI (OVCAR-8 ovarian): > 100 µM | TGI (DLD-1 colon): > 100 µM | TGI (SW-620 colon): > 100 µM | TGI (SK-OV-3 ovarian): > 100 µM | TGI (SF-268 CNS): > 100 µM | TGI (SNB-78 CNS): > 100 µM | TGI (HT29 colon): > 100 µM | TGI (A549 NSCLC): > 100 µM | TGI (SK-MEL-2 melanoma): > 100 µM | TGI (U251 CNS): > 100 µM | TGI (KM12 colon): > 100 µM | TGI (UACC-257 melanoma): > 100 µM | TGI (SN12C renal): > 100 µM | TGI (M19-MEL melanoma): > 100 µM | TGI (SK-MEL-5 melanoma): > 100 µM | TGI (SNB-75 CNS): > 100 µM | TGI (MOLT-4 leukemia): > 100 µM | TGI (A498 renal): > 100 µM | TGI (OVCAR-4 ovarian): > 100 µM | TGI (CCRF-CEM leukemia): > 100 µM | TGI (NCI-H522 lung): > 100 µM | TGI (NCI-H226 lung): > 100 µM | TGI (LXFL 529 NSCLC): > 100 µM | TGI (DMS 114 small cell lung): > 100 µM | TGI (ACHN renal): > 100 µM | TGI (786-0 renal): > 100 µM | TGI (K-562 leukemia): > 100 µM | TGI (OVCAR-5 ovarian): > 100 µM | TGI (TK-10 renal): > 100 µM | TGI (UACC-62 melanoma): > 100 µM
